Laboratory results taken from US7390806B2, “Antibiotics containing borinic acid complexes and methods of use” (Anacor Pharmaceuticals, Inc., priority 2002, dated 2008).
≈ marks a conversion by molar mass, not a printed value.

Experiments:
M. tuberculosis P1SP2 = test: Anti-mycobacterium in vitro activity, P1SP2; assay type: cell-based, Mycobacterium tuberculosis; details: Multi-drug resistant strain; for MIC: Mycobacterium tuberculosis, P1SP2
M. tuberculosis P2SP1 = test: Anti-mycobacterium in vitro activity, P2SP1; assay type: cell-based, Mycobacterium tuberculosis; details: Multi-drug resistant strain; for MIC: Mycobacterium tuberculosis, P2SP1

| Compound | M. tuberculosis MIC P1SP2 (M. tuberculosis P1SP2) [µg/mL] | M. tuberculosis MIC P2SP1 (M. tuberculosis P2SP1) [µg/mL] | MIC (M. tuberculosis P1SP2) [µg/mL] | MIC (M. tuberculosis P2SP1) [µg/mL] |
| --- | --- | --- | --- | --- |
| Oc1cccc2cccnc12 [Compound 55, 8-hydroxyquinoline] | 0.387 | 0.775 |  |  |
| [H]/N=C(/N)N[C@H]1[C@H](O)[C@@H](O)[C@H](O[C@@H]2O[C@@H](C)[C@](O)(C=O)[C@H]2O[C@@H]2O[C@@H](CO)[C@H](O)[C@@H](O)[C@@H]2NC)[C@@H](N/C(N)=N\[H])[C@@H]1O [Streptomycin] |  |  | < 2 | < 2 |
| NNC(=O)c1ccncc1 [Isoniazid (INH), Isoniazid] |  |  | > 8 | > 8 |
| CC[C@@H](CO)NCCN[C@@H](CC)CO [Ethambutol] |  |  | 8 (≈ 39.2 µM) | 8 (≈ 39.2 µM) |
| Oc1cccc2cccnc12 [Compound 72, 8-hydroxyquinoline] | 0.775 | 0.775 |  |  |
| Oc1cccc2cccnc12 [Compound 10, 8-hydroxyquinoline] | 0.387 | 0.387 |  |  |
| CCc1cc(C(N)=S)ccn1 [Ethionamide] |  |  | 32 (≈ 192 µM) | > 64 |
| Oc1cccc2cccnc12 [Compound 53, 8-hydroxyquinoline] | 0.387 | 0.775 |  |  |
| Oc1cccc2cccnc12 [Compound 75, 8-hydroxyquinoline] | 0.775 | 0.775 |  |  |
| NC[C@H]1O[C@H](O[C@H]2[C@H](O)[C@@H](O[C@H]3O[C@H](CO)[C@@H](O)[C@H](N)[C@H]3O)[C@H](N)C[C@@H]2N)[C@H](O)[C@@H](O)[C@@H]1O [Kanamycin] |  |  | < 2 | < 2 |
| Oc1cccc2cccnc12 [Compound 65, 8-hydroxyquinoline] | 0.775 | 0.775 |  |  |
| Nc1ccc(C(=O)O)c(O)c1 [p-aminosalicylate] | 16 | 32 |  |  |
| CO[C@H]1/C=C/O[C@@]2(C)Oc3c(C)c(O)c4c(O)c(c(/C=N/N5CCN(C)CC5)c(O)c4c3C2=O)NC(=O)/C(C)=C\C=C\[C@H](C)[C@H](O)[C@@H](C)[C@@H](O)[C@@H](C)[C@H](OC(C)=O)[C@@H]1C [Rifampicin] |  |  | > 16 | 16 (≈ 19.4 µM) |
| CC1COc2c(N3CCN(C)CC3)c(F)cc3c(=O)c(C(=O)O)cn1c23 (stereo not shown) [Ofloxacin] |  |  | 16 (≈ 44.3 µM) | 32 (≈ 88.6 µM) |
| Oc1cccc2cccnc12 [Compound 50, 8-hydroxyquinoline] | 0.387 | 0.387 |  |  |
| Oc1cccc2cccnc12 [Compound 51, 8-hydroxyquinoline] | 0.387 | 0.387 |  |  |
| N[C@@H]1CON=C1O [cycloserine] |  |  | 8 (≈ 78.4 µM) | 8 (≈ 78.4 µM) |
